# From patent US20050241940A1, “Fast perfusion system and patch clamp technique utilizing an interface chamber system having high throughput and low volume requirements” (Wyeth, priority 2004, published 2005)
# System: outward potassium currents in DRG neurons
# Assay: Whole cell patch clamp recording of outward potassium currents in DRG neurons using the interface chamber
# Format: cell-based
# Method: The current across a patch clamp measuring electrode and cell versus time is shown. Whole cell recording measurements were obtained via conventional methods. The interface chamber was moved to surround the cell as in steps 101-103 above. A measurement of current was recorded while the cell was in a well containing a normal saline (control) solution. The cell was then moved from normal saline to a well containing increasing concentrations (from 0 to 10 mM in increasing increments) of the K^+ channel blocker 4-AP. For each of the measurements, cells were held at −50 mV, stepped with a prepulse to −100 mV for 400 ms and then stepped for the test to +40 mV. After the test pulse, cells were repolarized to −60 mV. Sweeps were obtained every 10 sec, and 5 sweeps were obtained per well. The interface was moved from one well to the next in a short time, such as 2 seconds.
# Outward currents due to K^+ flow from the cell is shown. […] The lower current is consistent with the expected blocking effected of the 4-AP. Both the peak current (the spike at the left of graph of each measurement) and the end current (final value of current for each measurement) decreased as the concentration of 4-AP increased.
# FIG. 8 illustrates a graph showing the peak current of a fractional block versus the concentration of a test substance according to one example of the invention. […] The dose response curve shown illustrates the ability of this system to measure multiple concentrations of test substance accurately.
# [1] = highest concentration tested (10 mM)
smiles,measurement,setting,value
Nc1ccncc1 [4-AP],end current (final value of current for each measurement),as the concentration of 4-AP increased (0 to 10 mM),decreased
same,peak current,"as the concentration of 4-AP increased (0 to 10 mM), FIG. 7, shown as fractional block in FIG. 8",the peak current decreased as the concentration of 4-AP increased
same,inactivating current remaining,[1],no inactivating current remains
same,non-inactivating (persistent) current remaining,[1],significant non-inactivating (persistent) current persists
same,current across the cell membrane (outward K+ current),"whole cell, increasing 4-AP concentrations from 0 to 10 mM, test pulse to +40 mV",decreased the current across the cell membrane
